Columns and labels:
Assay type in all cases: biochemical
FXIIa = molecular target: T1, FXIIa (Homo sapiens, UniProt P00748); experiment: Determination of Factor XIIa inhibition (chromogenic substrate S-2302); details: human FXIIa alpha, Ki category
T1 construct: FXIIa alpha
T1 sequence (P00748 373-615 limits assumed): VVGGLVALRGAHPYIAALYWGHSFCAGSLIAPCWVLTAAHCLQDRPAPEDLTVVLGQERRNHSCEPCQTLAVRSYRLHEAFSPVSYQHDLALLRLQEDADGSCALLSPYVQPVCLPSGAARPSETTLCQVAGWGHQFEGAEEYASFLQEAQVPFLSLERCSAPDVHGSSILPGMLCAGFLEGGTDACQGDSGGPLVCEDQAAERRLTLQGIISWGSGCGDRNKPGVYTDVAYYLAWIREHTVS
T1 sequence (P00748 20-372 partner limits assumed): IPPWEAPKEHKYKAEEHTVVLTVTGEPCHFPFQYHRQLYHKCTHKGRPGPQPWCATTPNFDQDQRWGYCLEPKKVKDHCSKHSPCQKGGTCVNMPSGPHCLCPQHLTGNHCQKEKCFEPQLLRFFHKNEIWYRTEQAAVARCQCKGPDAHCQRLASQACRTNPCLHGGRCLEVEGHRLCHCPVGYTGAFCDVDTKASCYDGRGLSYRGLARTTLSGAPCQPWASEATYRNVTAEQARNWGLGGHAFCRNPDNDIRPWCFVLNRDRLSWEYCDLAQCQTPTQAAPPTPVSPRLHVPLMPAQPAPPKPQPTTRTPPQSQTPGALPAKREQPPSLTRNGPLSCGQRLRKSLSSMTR
How it was run: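 Compound preincubated with 10 nM FXIIa for 10 min at 37° C in 50 mM Tris, 137 mM NaCl, pH 7.4, 5% DMSO, top concentration 500 μM; S-2302 added at Km. pNA release followed at 405 nm for 3 h; IC50 from initial rates, converted to Ki via Ki = IC50/(1+[S]/Km).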

FXa = FXa (Homo sapiens, UniProt P00742); experiment: Determination of selectivity: FXa inhibition (chromogenic substrate S2765); details: fold selectivity for FXIIa over FXa (human); category
How it was run: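 FXa (5 nM) preincubated with increasing compound (top 500 μM) for 10 mins at 37° C in 50 mM Tris, 137 mM NaCl pH 7.4, 5% DMSO, then S2765 added at its KM. Absorbance at 405 nm followed kinetically for 3 hours; IC50 from initial rates, converted to Ki by Cheng-Prusoff.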

thrombin = molecular target: T2, thrombin (Homo sapiens, UniProt P00734); experiment: Determination of selectivity: thrombin inhibition (chromogenic substrate GPR); details: fold selectivity for FXIIa over thrombin (human); category
T2 construct: FXa (5 nM) and thrombin (5 nM)
How it was run: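 Thrombin (5 nM) preincubated with increasing compound concentrations (top 500 μM, 5% DMSO) 10 min at 37 °C in 50 mM Tris, 137 mM NaCl pH 7.4, then GPR chromogenic substrate at its KM. pNA release read kinetically at 405 nm for 3 h at 37 °C. IC50 from initial rates, converted to Ki via Cheng–Prusoff.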

Chain of FXa (P00742 235-488 limits assumed): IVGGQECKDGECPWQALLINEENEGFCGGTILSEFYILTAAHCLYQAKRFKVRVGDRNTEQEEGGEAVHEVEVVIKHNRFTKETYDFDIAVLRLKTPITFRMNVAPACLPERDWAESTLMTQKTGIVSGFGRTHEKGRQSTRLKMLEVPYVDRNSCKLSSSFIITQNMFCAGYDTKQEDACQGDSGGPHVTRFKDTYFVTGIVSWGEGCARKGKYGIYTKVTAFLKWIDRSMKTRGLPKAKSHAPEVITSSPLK
Chain of FXa (P00742 41-179 partner limits assumed): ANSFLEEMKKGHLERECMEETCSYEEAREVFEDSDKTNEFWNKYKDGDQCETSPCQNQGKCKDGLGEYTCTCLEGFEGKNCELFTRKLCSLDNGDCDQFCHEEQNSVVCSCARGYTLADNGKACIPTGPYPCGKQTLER

Row | SMILES | Ki (FXIIa) [nM] | FXa (human)/FXIIa alpha (human) (FXa) | Thrombin (human)/FXIIa alpha (human) (thrombin)
1 | Cc1ccc(C[C@@H]2C[C@@H](C(=O)NCc3ccc4c(cnn4C)c3)N(C(=O)[C@@H]3NCCC[C@@H]3C(=O)N3CC[C@H](N(C)C)C3)C2)cc1 [Example M06013, (2S,4R)-1-((2R,3S)-3-((S)-3-(dimethylamino)pyrrolidine-1-carbonyl)piperidine-2-carbonyl)-N-((1-methyl-1H-indazol-5-yl)methyl)-4-(4-methylbenzyl)pyrrolidine-2-carboxamide] | < 200 | ∘∘∘ | +++ (fold selectivity values greater than 100)
2 | Cn1ncc2cc(CNC(=O)[C@@H]3C[C@@H](Cc4ccc(OC(F)F)cc4)CN3C(=O)[C@@H]3NCCC[C@@H]3C(=O)N3CCCC3)ccc21 [Example M06021] | 200 to 800 | ∘∘∘ | +++ (fold selectivity values greater than 100)
3 | Cc1ccc(C[C@@H]2C[C@@H](C(=O)NCc3ccc4c(cnn4C)c3)N(C(=O)[C@@H]3NCCC[C@@H]3C(=O)N3CCCC3)C2)s1 [Example M06030, (2S,4S)-N-((1-methyl-1H-indazol-5-yl)methyl)-4-((5-methylthiophen-2-yl)methyl)-1-((2R,3S)-3-(pyrrolidine-1-carbonyl)piperidine-2-carbonyl)pyrrolidine-2-carboxamide] | 200 to 800 | ∘∘∘ | ++ (a fold selectivity value of 10 to 100)
4 | Cc1ccc(C[C@@H]2C[C@@H](C(=O)NCc3ccc4c(cnn4C)c3)N(C(=O)[C@@H]3NCCC[C@@H]3C(=O)N(C)C3CCN(C)C3)C2)cc1 (stereo partly drawn) [Example M06033, (2R,3S)-N-methyl-2-((2S,4R)-2-(((1-methyl-1H-indazol-5-yl)methyl)carbmoyl)-4-(4-methylbenzyl)pyrrolidine-1-carbonyl)-N-(1-methylpyrrolidin-3-yl)piperidine-3-carboxamide] | < 200 | ∘∘∘ | +++ (fold selectivity values greater than 100)
5 | Cc1ccc(C[C@@H]2C[C@@H](C(=O)NCc3ccc4c(cnn4C)c3)N(C(=O)[C@@H]3NCCC[C@@H]3C(=O)N(C)C3CCN(C)C3)C2)cc1 (stereo partly drawn) [Example M06034, (2R,3S)-N-methyl-2-((2S,4R)-2-(((1-methyl-1H-indazol-5-yl)methyl)carbamoyl)-4-(4-methylbenzyl)pyrrolidine-1-carbonyl)-N-(1-methylpyrrolidin-3-yl)piperidine-3-carboxamide] | < 200 | ∘∘∘ | +++ (fold selectivity values greater than 100)
6 | Cc1ccc(C[C@@H]2C[C@@H](C(=O)NCc3ccc4c(cnn4C)c3)N(C(=O)[C@@H]3NCCC[C@@H]3C(=O)N(C)CCN3CCCC3)C2)cc1 [Example M06039, (2R,3S)-N-methyl-2-((2S,4R)-2-(((1-methyl-1H-indazol-5-yl)methyl)carbamoyl)-4-(4-methylbenzyl)pyrrolidine-1-carbonyl)-N-(2-(pyrrolidin-1-yl)ethyl)piperidine-3-carboxamide] | < 200 | ∘∘∘ | +++ (fold selectivity values greater than 100)
7 | Cn1ncc2cc(CNC(=O)[C@@H]3C[C@@H](Cc4cc(C5CC5)on4)CN3C(=O)[C@@H]3NCCC[C@@H]3C(=O)N3CCC[C@@H]3C(F)(F)F)ccc21 [Example M06047, (2S,4S)-4-+(5-cyclopropylisoxazol-3-yl)methyl+-N-+(1-methylindazol-5-yl)methyl+-1-+(2R,3S)-3-+(2R)-2-(trifluoromethyl)pyrrolidine-1-carbonyl+piperidine-2-carbonyl+pyrrolidine-2-carboxamide] | < 200 | ∘∘∘ | +++ (fold selectivity values greater than 100)
8 | Cc1ccc(C[C@@H]2C[C@@H](C(=O)NCc3ccc4c(cnn4C)c3)N(C(=O)[C@@H]3NCCC[C@@H]3C(=O)N(CCN(C)C)C3CC3)C2)cc1 [Example M06048, (2R,3S)-N-cyclopropyl-N-(2-(dimethylamino)ethyl)-2-((2S,4R)-2-(((1-methyl-1H-indazol-5-yl)methyl)carbamoyl)-4-(4-methylbenzyl)pyrrolidine-1-carbonyl)piperidine-3-carboxamide] | < 200 | ∘∘∘ | +++ (fold selectivity values greater than 100)
9 | Cc1ccc(C[C@@H]2C[C@@H](C(=O)NCc3ccc4c(cnn4C)c3)N(C(=O)[C@@H]3NCCC[C@@H]3C(=O)N(C)CCN(C)C3CC3)C2)cc1 [Example M06049, (2R,3S)-N-[2-[cyclopropyl(methyl)amino]ethyl]N-methyl-2-[(2S,4R)-2-[(1-methylindazol-5-yl)methylcarbamoyl]-4-(p-tolylmethyl)pyrrolidine-1-carbonyl]piperidine-3-carboxamide] | < 200 | ∘∘∘ | +++ (fold selectivity values greater than 100)
10 | CN(C)CCN(C)C(=O)[C@H]1CCCN[C@H]1C(=O)N1C[C@H](Cc2ccc(C3CC3)cc2)C[C@H]1C(=O)NCc1ccc2c(cnn2C)c1 [Example M06060, (2R,3S)-2-((2S,4R)-4-(4-cyclopropylbenzyl)-2-(((1-methyl-1H-indazol-5-yl)methyl)carbamoyl)pyrrolidine-1-carbonyl)-N-(2-(dimethylamino)ethyl)-N-methylpiperidine-3-carboxamide] | < 200 | ∘∘∘ | +++ (fold selectivity values greater than 100)
11 | Cc1ccc(C[C@@H]2C[C@@H](C(=O)NCc3ccc4c(cnn4C)c3)N(C(=O)[C@@H]3NCCC[C@@H]3C(=O)N(C)C3CCN(C)CC3)C2)cc1 [Example M06061, (2R,3S)-N-methyl-2-((2S,4R)-2-(((1-methyl-1H-indazol-5-yl)methyl)carbamoyl)-4-(4-methylbenzyl)pyrrolidine-1-carbonyl)-N-(1-methylpiperidin-4-yl)piperidine-3-carboxamide] | < 200 | ∘∘∘ | +++ (fold selectivity values greater than 100)
12 | Cc1ccc(C[C@@H]2C[C@@H](C(=O)NCc3ccc4c(cnn4C)c3)N(C(=O)[C@@H]3NCCC[C@@H]3C(=O)N(C)CCCN(C)C)C2)cc1 [Example M06063, (2R,3S)-N-(3-(dimethylamino)propyl)-N-methyl-2-((2S,4R)-2-(((1-methyl-1H-indazol-5-yl)methyl)carbamoyl)-4-(4-methylbenzyl)pyrrolidine-1-carbonyl)piperidine-3-carboxamide] | < 200 | ∘∘∘ | +++ (fold selectivity values greater than 100)
13 | Cc1ccc(C[C@@H]2C[C@@H](C(=O)NCc3ccc4c(c3)nnn4C)N(C(=O)[C@@H]3NCCC[C@@H]3C(=O)N3CCC[C@@H]3C(F)(F)F)C2)s1 [Example M06079, (2S,4S)-N-+(1-methylbenzotriazol-5-yl)methyl+-4-+(5-methyl-2-thienyl)methyl+-1-+(2R,3S)-3-+(2R)-2-(trifluoromethyl)pyrrolidine-1-carbonyl+piperidine-2-carbonyl+pyrrolidine-2-carboxamide] | 200 to 800 | ∘∘∘ | +++ (fold selectivity values greater than 100)
14 | Cc1ccc(C[C@@H]2C[C@@H](C(=O)NCc3ccc4c(cnn4C)c3)N(C(=O)[C@@H]3NCCC[C@@H]3C(=O)N(C)C3CCN(CCF)CC3)C2)cc1 [Example M06083, (2R,3S)—N-[1-(2-fluoroethyl)-4-piperidyl]-N-methyl-2-[(2S,4R)-2-[(1-methylindazol-5-yl)methylcarbamoyl]-4-(p-tolylmethyl)pyrrolidine-1-carbonyl]piperidine-3-carboxamide] | < 200 | ∘∘∘ | +++ (fold selectivity values greater than 100)
15 | COCCN1CCC(N(C)C(=O)[C@H]2CCCN[C@H]2C(=O)N2C[C@H](Cc3ccc(C)cc3)C[C@H]2C(=O)NCc2ccc3c(cnn3C)c2)CC1 [Example M06084, (2R,3S)-N-(1-(2-methoxyethyl)piperidin-4-yl)-N-methyl-2-((2S,4R)-2-(((1-methyl-1H-indazol-5-yl)methyl)carbamoyl)-4-(4-methylbenzyl)pyrrolidine-1-carbonyl)piperidine-3-carboxamide] | < 200 | ∘∘∘ | +++ (fold selectivity values greater than 100)
